Entries after “also recorded” stand apart in the source; their conditions may differ.
Experiments:
PPARα [1] = test: Semi-quantitative RT-PCR, mouse primary fibroblasts; format: cell-based; conditions: mouse X-ALD fibroblasts, 5 mM, 2 days
Experimental: (§1) Total RNA from tissue culture cells (10^6-10^7 cells/sample) was isolated using TRizol Reagent™ (Life Technologies), treated with DNase I (100-200 units in 40 mM HC, 10mM NaC, 6 mM MgCl2, pH 7.3), incubated at 37° C. for 30 min, extracted with pheno/chloroform, and precipitated with isopropanol. cDNA was generated using MMLV reverse transcriptase (RT) (Life Technologies). PCR was done in the linear range of amplification (determined for each primerpair-cDNA combination). For each cDNA sample, a ‘cocktail’ was prepared, containing PCR buffer (Promega), 200 µM of each DNTP, 1.5 mM MgCl2, 250 ng cDNA, 0.25 U of Taq polymerase (Promega) and […]. The ‘cocktail’ was divided into separate tubes containing cDNA specific primers.
(§2) The PCR primers used are listed below. In the parentheses, h indicates human and m, mouse; this is followed by the gene name, product size and annealing temperature. For primer sequences, F is forward and R is reverse. […]

Pex11α [2] = test: as above; format: cell-based; conditions: normal or X-ALD mouse fibroblasts, 10 day exposure to 5 mM; data not shown
Experimental: as §1, §2

[3] = system: human primary fibroblasts; test: Peroxisome counting by anti-SKL (PTS1) immunofluorescence; format: cell-based; conditions: 5 mM
Text: Peroxisomes were made visible with immunofluorescence using a polyclonal antibody to the C-terminal tripeptide (SKL) peroxisome targeting signal 1 (PTS1), which is present in most peroxisomal matrix proteins. […] We counted the peroxisomes after 10 days of treatment (Table 3). Slides were scanned visually and cells categorized as having low, medium or high numbers of peroxisomes. For each cell line, the number of peroxisomes is the mean of three ‘low’, four ‘medium’ and three ‘high’ cells (Table 3). There was no difference between control cells and X-ALD cells in either the number of peroxisomes per cell or in the response to 4-PBA. […] The 2.4-fold increase in the number of peroxisomes per cell was statistically significant (P<0.0000001, two-tailed Student's t-test). Peroxisome numbers obtained with an antibody against a peroxisomal membrane protein (Pex14p) gave similar results (data not shown).
The anti-SKL (PTSI) antibody was a gift from S. Gould and the anti-Pex11α antibody was a gift from S. Mihalik. To count peroxisomes, we photographed immunofluorescence-stained cells after focusing on the cell nucleus, and determined the peroxisome number per cell with the aid of a colon counter after projecting the slides to enlarge the image.

PMP70 = test: Semi-quantitative RT-PCR, human primary fibroblasts; format: cell-based; conditions: X-ALD or normal fibroblasts, 5 mM, 2 days
Experimental: (§3) Semi-quantitative RT-PCR was done on the mRNA isolated from these cells (FIG. 1). […] In addition, the expression of acyl-CoA oxidase (AOX), the rate-limiting enzyme in VLCFA β-oxidation, was not affected. Although previous studies have reported that ALDR mRNA was not detectable in fibroblasts by either northern or RT-PCR analyses, those RT-PCR studies used about 66 ng of CDNA; we used about 250 ng of cDNA.
as §1
(§4) The PCR primers used are listed below. In the parentheses, h indicates human and m, mouse; this is followed by the gene name, product size and annealing temperature. For primer sequences, F is forward and R is reverse. (hALD, 249, 64° C.) F: 5′-[…]-3′, R: 5′-[…]-3′; (mALD, 526, 59° C.) F: 5′-[…]-3′, R: 5′-[…]-3′; (hPMP70, 405, 60° C.) F: 5′-[…]-3′, R: 5′-[…]-3′; (mPMP70, 405, 60° C.) F: 5′-TTr[…]-3′, R: 5′-[…]-3′; (hALDR, 312, 56° C.) F: 5-[…]-3′, R: 5′-[…]-3′; (mALDR, 711, 57° C.) F: 5′-[…]-3′, R: 5′-[…]-3′; (hPMP69, 319, 60° C.) F: 5′-[…]-3′, R: 5-[…]-3′; (hAOX, 405, 60° C.) F: 5′-[…]-3′, R: 5′[…]-3′; (mAOX, 247, 60° C.) F: 5′-[…]r[…]-3′, R: 5′-[…]-3′; (hPPARα, 347, 60° C.) F: 5-[…]r[…]rCC-3′, R: 5′-[…]-3′; (mFPPARa, 268, 60° C.) F: 5′-GATTr[…]-TGAGG-3, R: 5′-[…]-3′; (hPex11α 658, 55° C.) F: 5-[…]-3′, R: 5′-[…]-3′; (mpex11α, 720, 55° C.) F: 5′-[…]r[…]-3′, R: 5′-[…]-3′; (β-Actin, 460, 62° C.) F:5′-[…]-3′, R: 5′-[…]-3, (glyceraldehyde 3-phosphate dehydrogenase (GAPDH), 528, 62° C.) F: 5′-[…]-3, R: 5′-[…]-3′. β-Actin and GAPDH primers were used for both human and mouse analyses.

ALDR mRNA = test: as above; format: cell-based; conditions: normal and X-ALD fibroblasts, 5 mM, 2 days, relative to β-actin
Experimental: as §3, §1, §4

ALDP [4] = test: as above; format: cell-based; conditions: normal fibroblasts, 5 mM, 2 days
Experimental: as §3, §1, §4

PMP69 = test: as above; format: cell-based; conditions: X-ALD or normal fibroblasts, 5 mM, 2 days
Experimental: as §3, §1, §4

acyl-CoA oxidase (AOX) = test: as above; format: cell-based; conditions: 5 mM
Experimental: as §3, §1, §4

[5] = used for many years in patients; cited from earlier work
ALDP [6] = test: ALDP stabilization, immunofluorescence with anti-ALDP antibody; format: cell-based, human; conditions: X-ALD fibroblasts with destabilizing missense mutations (A626T, R660W), 5 mM for up to 10 days
PPARα [7] = test: Semi-quantitative RT-PCR, human primary fibroblasts; format: cell-based; conditions: human X-ALD fibroblasts, 5 mM, up to 10 days
Experimental: as §1, §2

Pex11α [8] = test: as above; format: cell-based; conditions: 5 mM, 2 days
Experimental: as §1, §2

[9] = system: human primary fibroblasts; test: Toxicity in cultured cells; format: cell-based; conditions: data not shown
Text: (§5) The genotypes of the X-ALD patients included midssense, nonsense, ftame shift and deletion mutations and all of the main clinical phenotypes.

[10] = system: mouse primary fibroblasts; test: Toxicity in cultured cells; format: cell-based; conditions: data not shown
Text: as §5

O=C(O)CCCc1ccccc1 [4-PBA, 4-Phenyl butyrate]
PPARα expression (PPARα [1]): increased | Pex11α transcripts (Pex11α [2]): undetectable | Increase in number of peroxisomes per cell ([3]; 10 days): 2.4 fold | Peroxisomes per cell after exposure ([3]; 10 days, five X-ALD and four control cell lines combined, 416±27 before exposure): 1014±108 peroxisomes per cell | Increase in peroxisome number ([3]; human X-ALD primary fibroblasts, 8 days): approximately twofold | PMP70 expression level (PMP70): little, if any, effect | ALDR mRNA level (ALDR mRNA): substantially increased; also recorded: substantial increase | ALDP expression level (ALDP [4]): little, if any, effect | PMP69 expression level (PMP69): little, if any, effect | AOX expression (acyl-CoA oxidase (AOX); 2 days): unchanged; also recorded: not affected | AOX expression (acyl-CoA oxidase (AOX); 10 days): remained unchanged | Side effects [5]: few, if any, side effects | Detectable ALDP after treatment (ALDP [6]): did not result in detectable levels of ALDP | PPARα expression (PPARα [7]): unchanged | Pex11α expression (Pex11α [8]): substantially increased; also recorded: substantial increase | Toxic concentration [9]: exceeding 7.5 mM | Toxic concentration [10]: exceeding 7.5 mM
